Test results reported in patent publication US10800792B2, “Inhibitors of Bruton's tyrosine kinase and method of their use” (JANSSEN PHARMACEUTICA NV, priority 2015, dated 2020).

Target: unphosphorylated-BTK kinase domain (UP-BTK), GST-tagged human BTK (389-659aa) (Homo sapiens (Human), UniProt Q06187)
Assay: BTK kinase Lanthascreen binding assay
Details: Lanthascreen tracer competition, 60 minutes incubation; pIC50 = negative log of the IC50 in molar
Procedure, shortened: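 Values are pIC50, i.e. negative log of IC50 in molar, derived from concentration–response fitting. Each compound competes with a fluorescently labelled tracer for the unphosphorylated kinase domain.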

Chain of unphosphorylated-BTK kinase domain (UP-BTK), GST-tagged human BTK (389-659aa) (Q06187 389-659): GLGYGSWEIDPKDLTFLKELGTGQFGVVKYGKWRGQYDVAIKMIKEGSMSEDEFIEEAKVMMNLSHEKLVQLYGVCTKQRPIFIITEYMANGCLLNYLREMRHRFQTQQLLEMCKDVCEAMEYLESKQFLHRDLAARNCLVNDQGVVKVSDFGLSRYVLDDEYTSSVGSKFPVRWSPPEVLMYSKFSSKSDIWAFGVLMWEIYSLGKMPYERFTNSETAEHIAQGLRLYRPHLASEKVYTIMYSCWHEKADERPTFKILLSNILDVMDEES

In order of rising “BTK_I_binding pIC50” value:
1. CC(C)(C)OC(=O)N1CCC[C@@H](NC(=O)c2sc3nccc4c3c2NC(=O)N4c2ccc(Oc3ccccc3)cc2)C1 [Example 628, (R)-tert-Butyl 3-(4-oxo-5-(4-phenoxyphenyl)-4,5-dihydro-3H-1-thia-3,5,8-triazaacenaphthylene-2-carboxamido)piperidine-1-carboxylate]  5.8
2. C=CC(=O)N1CCC[C@@H](NC(=O)c2sc3nccc4c3c2NC(=O)N4c2cccc(Oc3ccccc3)n2)C1 [Example 635, (R)—N-(1-Acryloylpiperidin-3-yl)-4-oxo-5-(6-phenoxypyridin-2-yl)-4,5-dihydro-3H-1-thia-3,5,8-triazaacenaphthylene-2-carboxamide]  5.8
3. CCC(=O)N1CCC(C(=O)Nc2sc3nccc4c3c2NC(=O)N4c2ccc(Oc3ccccc3)cc2C)CC1 [Example 805, N-(5-(2-Methyl-4-phenoxyphenyl)-4-oxo-4,5-dihydro-3H-1-thia-3,5,8-triazaacenaphthylen-2-yl)-1-propionylpiperidine-4-carboxamide]  6.0
4. C=CC(=O)N1C[C@@H](O)[C@@H](NC(=O)c2sc3nccc4c3c2NC(=O)N4c2ccc(OC(C)C)cc2C)C1 [Example 614, N-((3S,4R)-1-Acryloyl-4-hydroxypyrrolidin-3-yl)-5-(4-isopropoxy-2-methylphenyl)-4-oxo-4,5-dihydro-3H-1-thia-3,5,8-triazaacenaphthylene-2-carboxamide]  6.1
5. O=C(NC1CCN(C(=O)/C=C/CO)CC1)c1sc2nccc3c2c1NC(=O)N3c1ccc(Oc2ccccc2)cc1 [Example 596, (E)-N-(1-(4-Hydroxybut-2-enoyl)piperidin-4-yl)-4-oxo-5-(4-phenoxyphenyl)-4,5-dihydro-3H-1-thia-3,5,8-triazaacenaphthylene-2-carboxamide]  6.9
6. CC(=O)N1CC[C@@H](NC(=O)c2sc3nccc4c3c2NC(=O)N4c2ccc(Oc3ccccc3)cc2)C1 [Example 888, (R)—N-(1-Acetylpyrrolidin-3-yl)-4-oxo-5-(4-phenoxyphenyl)-4,5-dihydro-3H-1-thia-3,5,8-triazaacenaphthylene-2-carboxamide]  7.0

Same assay, conditions: pIC50 = negative log of the IC50 in molar; 60 minutes incubation, 50 nM Tracer 236

In order of rising “BTK_I_binding pIC50” value:
1. CO[C@H]1CN(C)C[C@@H]1NC(=O)c1sc2nccc3c2c1NC(=O)N3c1ccc(Oc2ccccc2)cc1C [Example 244, N-((3S,4S)-4-Methoxy-1-methylpyrrolidin-3-yl)-5-(2-methyl-4-phenoxyphenyl)-4-oxo-4,5-dihydro-3H-1-thia-3,5,8-triazaacenaphthylene-2-carboxamide]  6.6
2. CO[C@H]1CNC[C@H](NC(=O)c2sc3nccc4c3c2NC(=O)N4c2ccc(Oc3ccccc3)cc2C)C1 [Example 224, N-((3R,5R)-5-Methoxypiperidin-3-yl)-5-(2-methyl-4-phenoxyphenyl)-4-oxo-4,5-dihydro-3H-1-thia-3,5,8-triazaacenaphthylene-2-carboxamide]  6.8
3. COC=C(C#N)C(=O)N1CCC[C@@H](NC(=O)c2sc3nccc4c3c2NC(=O)N4c2ccc(Oc3ccccc3)cc2C)C1 (mixture of isomers) [Example 231, (R,EZ)—N-(1-(2-Cyano-3-methoxyacryloyl)piperidin-3-yl)-5-(2-methyl-4-phenoxyphenyl)-4-oxo-4,5-dihydro-3H-1-thia-3,5,8-triazaacenaphthylene-2-carboxamide]  6.8
4. Cc1cc(Oc2ccccc2)ccc1N1C(=O)Nc2c(C(=O)N[C@@H]3CCN(C4CC4)C3)sc3nccc1c23 [Example 149, (R)—N-(1-Cyclopropylpyrrolidin-3-yl)-5-(2-methyl-4-phenoxyphenyl)-4-oxo-4,5-dihydro-3H-1-thia-3,5,8-triazaacenaphthylene-2-carboxamide]  6.8
5. Cc1cc(Oc2ccccc2)ccc1N1C(=O)Nc2c(C(=O)NC3CCCN(C(=O)/C=C/CNC(=O)CCCC(=O)NCCCOCCOCCOCCCNC(=O)CCCC[C@H]4SC[C@@H]5NC(=O)N[C@@H]54)C3)sc3nccc1c23 (stereo partly drawn) [Example 237, N^1-((E)-4-(3-(5-(2-methyl-4-phenoxyphenyl)-4-oxo-4,5-dihydro-3H-1-thia-3,5,8-triazaacenaphthylene-2-carboxamido)piperidin-1-yl)-4-oxobut-2-en-1-yl)-N5-(15-oxo-19-((3aS,4R,6aR)-2-oxohexahydro-1H-thieno[34-d]imidazol-4-yl)-4,7,10-trioxa-14-azanonadecyl)glutaramide]  6.9
6. COC[C@H](OC)C(=O)N1CCC[C@@H](NC(=O)c2sc3nccc4c3c2NC(=O)N4c2ccc(Oc3ccccc3)cc2C)C1 [Example 142, N—((R)-1-((S)-2,3-Dimethoxypropanoyl)piperidin-3-yl)-5-(2-methyl-4-phenoxyphenyl)-4-oxo-4,5-dihydro-3H-1-thia-3,5,8-triazaacenaphthylene-2-carboxamide]  7.2
7. COCCC(=O)N1C[C@H](NC(=O)c2sc3nccc4c3c2NC(=O)N4c2ccc(Oc3ccccc3)cc2C)[C@@H](O)C1 [Example 139, N-((3S,4S)-4-Hydroxy-1-(3-methoxypropanoyl)pyrrolidin-3-yl)-5-(2-methyl-4-phenoxyphenyl)-4-oxo-4,5-dihydro-3H-1-thia-3,5,8-triazaacenaphthylene-2-carboxamide]  7.2
8. Cc1c(N2C(=O)Nc3c(C(=O)N[C@@H]4CCCOC4)sc4nccc2c34)ccc(Oc2ccccc2)c1F [Example 71, (R)-5-(3-Fluoro-2-methyl-4-phenoxyphenyl)-4-oxo-N-(tetrahydro-2H-pyran-3-yl)-4,5-dihydro-3H-1-thia-3,5,8-triazaacenaphthylene-2-carboxamide]  7.5
9. Cc1cc(Oc2ccccc2)ccc1N1C(=O)Nc2c(C(=O)N[C@@H]3CCCN(C(=O)/C(C#N)=C/C4(C)COC4)C3)sc3nccc1c23 [Example 21, (R,E)-N-(1-(2-cyano-3-(3-methyloxetan-3-yl)acryloyl)piperidin-3-yl)-5-(2-methyl-4-phenoxyphenyl)-4-oxo-4,5-dihydro-3H-1-thia-3,5,8-triazaacenaphthylene-2-carboxamide]  7.7

Same assay, conditions: pIC50 = negative log of the IC50 in molar; 60 minutes incubation, 50 nM Tracer 236; read-out: BTK_I_binding pIC50 (converted)

`C=CC(=O)N1C[C@H](O)C[C@@H](NC(=O)c2sc3nccc4c3c2NC(=O)N4c2ccc(Oc3ccccc3)cc2C)C1` [Example 6, N-((3R,5R)-1-Acryloyl-5-hydroxypiperidin-3-yl)-5-(2-methyl-4-phenoxyphenyl)-4-oxo-4,5-dihydro-3H-1-thia-3,5,8-triazaacenaphthylene-2-carboxamide] was tested, and the IC50 was 12.6 nM.

Same assay, conditions: unphosphorylated-BTK kinase domain, 50 nM Tracer 236, 60 minutes; pIC50 = negative log of the IC50 in molar

In order of falling “BTK_I_binding pIC50” value:
1. Cc1cc(Oc2ccccc2)ccc1N1C(=O)Nc2c(C(=O)N[C@@H]3CCN(C(=O)/C=C/CN)C3)sc3nccc1c23 (single isomer, unassigned) [Example 520, (R,E)-N-(1-(4-Aminobut-2-enoyl)pyrrolidin-3-yl)-5-(*S)-(2-methyl-4-phenoxyphenyl)-4-oxo-4,5-dihydro-3H-1-thia-3,5,8-triazaacenaphthylene-2-carboxamide]  8.1
2. Cc1cc(Oc2ccccc2)ccc1N1C(=O)Nc2c(C(=O)N[C@@H]3CCN(C(=O)CCl)C3)sc3nccc1c23 [Example 395, (R)—N-(1-(2-Chloroacetyl)pyrrolidin-3-yl)-5-(2-methyl-4-phenoxyphenyl)-4-oxo-4,5-dihydro-3H-1-thia-3,5,8-triazaacenaphthylene-2-carboxamide]  8.0
3. CNC/C=C(\F)C(=O)N1CCC[C@@H](NC(=O)c2sc3nccc4c3c2NC(=O)N4c2ccc(Oc3ccccc3)cc2C)C1 [Example 388, (R,Z)—N-(1-(2-Fluoro-4-(methylamino)but-2-enoyl)piperidin-3-yl)-5-(2-methyl-4-phenoxyphenyl)-4-oxo-4,5-dihydro-3H-1-thia-3,5,8-triazaacenaphthylene-2-carboxamide]  7.1
4. CCN1CCC[C@@H](NC(=O)c2sc3nccc4c3c2NC(=O)N4c2ccc(Oc3ccccc3C(C)C)cc2C)C1 [Example 320, (R)—N-(1-Ethylpiperidin-3-yl)-5-(4-(2-isopropylphenoxy)-2-methylphenyl)-4-oxo-4,5-dihydro-3H-1-thia-3,5,8-triazaacenaphthylene-2-carboxamide]  6.7
5. C=CC(=O)N1CCC[C@@H](NC(=O)c2sc3nccc4c3c2NC(=O)N4c2ccc(C)c(Cl)c2)C1 [Example 584, (R)—N-(1-Acryloylpiperidin-3-yl)-5-(3-chloro-4-methylphenyl)-4-oxo-4,5-dihydro-3H-1-thia-3,5,8-triazaacenaphthylene-2-carboxamide]  6.6
6. C=CC(=O)N1CCC[C@@H](NC(=O)c2sc3nccc4c3c2NC(=O)N4c2cccc(C(F)(F)F)c2)C1 [Example 288, (R)—N-(1-Acryloylpiperidin-3-yl)-4-oxo-5-(3-(trifluoromethyl)phenyl)-4,5-dihydro-3H-1-thia-3,5,8-triazaacenaphthylene-2-carboxamide]  6.2

In the case of `Cc1cc(Oc2ccccc2)nnc1N1C(=O)Nc2c(C(=O)N[C@@H]3CCCN(C)C3)sc3nccc1c23` [Example 350, (R)-5-(4-Methyl-6-phenoxypyridazin-3-yl)-N-(1-methylpiperidin-3-yl)-4-oxo-4,5-dihydro-3H-1-thia-3,5,8-triazaacenaphthylene-2-carboxamide], the “BTK_I_binding pIC50” value was under 5.

Same assay, conditions: unphosphorylated-BTK kinase domain, 60 minutes incubation, 50 nM Tracer 236; pIC50 = negative log of the IC50 in molar

With `Cc1c(Oc2ccccc2)cccc1N1C(=O)Nc2c(C(=O)N[C@H]3CCCN(C(=O)/C(C#N)=C/C4CC4)C3)sc3nccc1c23` [Example 957, (S,E)-N-(1-(2-Cyano-3-cyclopropylacryloyl)piperidin-3-yl)-5-(2-methyl-3-phenoxyphenyl)-4-oxo-4,5-dihydro-3H-1-thia-3,5,8-triazaacenaphthylene-2-carboxamide] the “BTK_I_binding pIC50” value was under 5.
